pEC50: −log10 of the molar value. Each block holds one molecule with its values, some of them ahead of it.
Key:
[1] = Microsomal metabolic stability, human; type: in vitro ADME
Procedure: (§1) Metabolic stability (MS) evaluation was conducted for the selected compounds by measuring in vitro stability in two species, rat and human, according to the microsomal stability measurement method. As a result, it was identified that MS varied depending on the transformation of parts A, B, and C.

[2] = S9 metabolic stability, rat; type: in vitro ADME; details: for Metabolic stability (% remaining at each time) Rat (min) 30: 30 min; for Metabolic stability (% remaining at each time) Rat (min) 45: 45 min; for Metabolic stability (% remaining at each time) Rat (min) 60: 60 min
Procedure: (§2) Among these, secondary MS measurements were conducted for Compound 25 (C0047), Compound 43 (C0216), and C0001 using the S9 method. This test measured the remaining % at 30, 45, and 60 minutes for four species: mouse, rat, dog, and human.

Organ distribution = type: in vivo; set-up: Organ distribution Plasma (ng/ml): concentration or dose not given beside the values
[3] = Rat pharmacokinetics (po and iv) and bioavailability; type: in vivo; details: for Cmax / Tmax / half-life / AUC: in vivo
Procedure: For this purpose, formulations suitable for peroral administration (po) and intravenous injection (iv) for each compound were first selected to ensure stable PK progression.
The formulation was selected under the condition of maintaining a clear solution for more than 1 hour at 10 and 30 mpk doses based on po, and the iv formulation was modified when iv use was not possible based on po (Table 8).
To confirm the oral administration potential of the selected compounds, 10 mpk rat po PK was conducted. The PK profile and key indicators after administering 10 mpk to five compounds, C0001, 25, 41, 42, and 43, are shown in Figure 3 and Table 9.
Based on the previous 10 mpk po rat PK results, 30 mpk po rat PK was conducted for four compounds, C0001, 25, 41, and 43, to confirm changes in the blood PK profile of the substances with increasing doses.
For these compounds, 2 mpk iv rat PK was conducted to calculate bioavailability (BA) (Table 11).

Raw 264.7 cells = assay: LN (Laminin 421)-induced immune cell migration, Transwell; type: cell-based; details: Mus musculus, RAW264.7; for inhibition at 3 µM: 3 µM compound, LN (Laminin 421 1 µg/ml), 24 hours, % inhibition compared to control group, read-out: Migration inhibitor % (3uM); for pEC50: LN-induced cell migration, read-out: EC50 for cell migration inhibition induced by LN
Summary of the method: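 Raw 264.7 cells (1 x 10^5/well) seeded in upper chamber of gelatin-coated 5 µm Transwell with compound at 3 µM. Serum-free DMEM with Laminin 421 (1 µg/ml) in lower chamber. After 24 h, migrated cells fixed, hematoxylin-stained and counted by microscopy; expressed as % inhibition versus control.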

[4] = S9 metabolic stability, dog; type: in vitro ADME; details: for Metabolic stability (% remaining at each time) Dog (min) 30: 30 min; for Metabolic stability (% remaining at each time) Dog (min) 45: 45 min; for Metabolic stability (% remaining at each time) Dog (min) 60: 60 min
Procedure: as §2

[5] = Microsomal metabolic stability, rat; type: in vitro ADME
Procedure: as §1

[6] = S9 metabolic stability, human; type: in vitro ADME; details: for Metabolic stability (% remaining at each time) Human (min) 30: 30 min; for Metabolic stability (% remaining at each time) Human (min) 45: 45 min; for Metabolic stability (% remaining at each time) Human (min) 60: 60 min
Procedure: as §2

Raw264.7 cells = assay: KARS1-induced trans-migration assay; type: cell-based, mouse; details: Mus musculus, RAW264.7; for inhibition at 1 µM: 1 µM compound, read-out: KARS1-induced Raw264.7 cell migration (% inhibition, 1uM); for pEC50: KARS1-induced cell migration, 0.1~4 µM
Summary of the method: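 Mouse Raw264.7 macrophage trans-migration induced by externally added KARS1 protein in place of laminin. Candidates with high inhibition at 1 µM were then tested at 0.1~4 µM.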

[7] = S9 metabolic stability, mouse; type: in vitro ADME; details: for Metabolic stability (% remaining at each time) Mouse (min) 30: 30 min; for Metabolic stability (% remaining at each time) Mouse (min) 45: 45 min; for Metabolic stability (% remaining at each time) Mouse (min) 60: 60 min
Procedure: as §2

KARS1 and 37LR = biological target: T1, KARS1 and 37LR (Homo sapiens, UniProt Q15046); assay: Cell-free ELISA of KARS1 and 37LR (laminin receptor) binding; details: 10 µM compound, 1 hour, plate coated with KARS1 (1-207aa), LRF
T1 construct: KARS1 (1-207aa)
T1 sequence (Q15046 1-207): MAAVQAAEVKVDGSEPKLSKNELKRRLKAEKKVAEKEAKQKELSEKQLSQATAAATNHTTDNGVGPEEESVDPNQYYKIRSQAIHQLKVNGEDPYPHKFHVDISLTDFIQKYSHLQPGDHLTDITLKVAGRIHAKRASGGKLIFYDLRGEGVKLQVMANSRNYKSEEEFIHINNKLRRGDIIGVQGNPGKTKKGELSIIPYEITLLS
Procedure: Next, based on the mechanism of action, a cell-free ELISA analysis was conducted to select compounds with high inhibitory activity on the binding of KARS1 and LR (laminin receptor).

[8] = po, 10 mg/kg, 10 mpk (Table 11)
[9] = po, 30 mg/kg, 30 mpk (Table 11)

Metabolic stability (% remaining at 30 min) Human [1]: 85% | Metabolic stability (% remaining at each time) Rat (min) 30 [2]: 99.2% | Metabolic stability (% remaining at each time) Rat (min) 45 [2]: 81.6% | Metabolic stability (% remaining at each time) Rat (min) 60 [2]: 88.0% | Organ distribution (ratio per plasma) Brain (Organ distribution; 0.5 h): 0.09 | Organ distribution (ratio per plasma) Brain (Organ distribution; 6.0 h): 0.92 | Organ distribution (ratio per plasma) Heart (Organ distribution; 0.5 h): 0.42 | Organ distribution (ratio per plasma) Heart (Organ distribution; 6.0 h): 0.35 | Organ distribution (ratio per plasma) Kidney (Organ distribution; 0.5 h): 0.61 | Organ distribution (ratio per plasma) Kidney (Organ distribution; 6.0 h): 1.89 | Organ distribution (ratio per plasma) Liver (Organ distribution; 0.5 h): 1.70 | Organ distribution (ratio per plasma) Liver (Organ distribution; 6.0 h): 3.56 | Organ distribution (ratio per plasma) Lung (Organ distribution; 0.5 h): 4.30 | Organ distribution (ratio per plasma) Lung (Organ distribution; 6.0 h): 0.55 | Organ distribution Plasma (ng/ml) (Organ distribution; 0.5 h): 19,420 ng/ml | Organ distribution Plasma (ng/ml) (Organ distribution; 6.0 h): 5,366 ng/ml | Cmax ([3]; 10 mg/kg, po, 10 mpk): 3320 ng/mL | Tmax ([3]; 10 mg/kg, po, 10 mpk): 1.33 h | half-life ([3]; 10 mg/kg, po, 10 mpk): 0.95 h | Cmax ([3]; 30 mg/kg, po, 30 mpk): 12800 ng/mL | Tmax ([3]; 30 mg/kg, po, 30 mpk): 1.67 h | half-life ([3]; 30 mg/kg, po, 30 mpk): 1 h | AUC ([3]; iv, 2 mg/kg, 2 mpk): 2690 ng·h/mL | AUC ([3]; po, 10 mg/kg, 10 mpk): > 5000 ng·h/mL | AUC [3, 8]: 9710 ng·h/mL | AUC ([3]; po, 30 mg/kg, 30 mpk): 55300 ng·h/mL | AUC [3, 9]: 55300 ng·h/mL | BA (%) ([3]; po, 10 mpk against iv 2 mpk): 72.2% | AUC (ng*h/ml) ([3]; po, 10 mpk, listed as 43 (C0216), 10 mg/kg): 9,711 ng*h/ml | BA (%) ([3]; po, 30 mpk against iv 2 mpk): 137.0% | AUC value increase at 30 mpk ([3]; po, 30 mpk compared with 10 mpk): 5.7 times | pEC50 (Raw 264.7 cells): 5.29 | Metabolic stability (% remaining at each time) Dog (min) 30 [4]: 110.9% | Metabolic stability (% remaining at each time) Dog (min) 45 [4]: 117.3% | Metabolic stability (% remaining at each time) Dog (min) 60 [4]: 100.6% | Metabolic stability (% remaining at 30 min) Rat [5]: 80% | Metabolic stability (% remaining at each time) Human (min) 30 [6]: 87.3% | Metabolic stability (% remaining at each time) Human (min) 45 [6]: 80.7% | Metabolic stability (% remaining at each time) Human (min) 60 [6]: 92.4% | pEC50 (Raw264.7 cells): 6.19 | Metabolic stability (% remaining at each time) Mouse (min) 30 [7]: 79.8% | Metabolic stability (% remaining at each time) Mouse (min) 45 [7]: 77.7% | Metabolic stability (% remaining at each time) Mouse (min) 60 [7]: 73.2% | inhibition at 10 µM (KARS1 and 37LR): 67.1%
Structure (SMILES): COc1ccc(CCN(Cc2ccc(N3CC[C@H](C(=O)O)C3)cc2)c2nc3c(F)c(F)cc(F)c3s2)cc1 [Compound 43, (S)-1-(4-(((4-methoxyphenethyl)(4,5,7-trifluorobenzo[d]thiazol-2-yl)amino)methyl)phenyl)pyrrolidine-3-carboxylic acid]
inhibition at 3 µM (Raw 264.7 cells): 31.1% | inhibition at 1 µM (Raw264.7 cells): 98.4%

Metabolic stability (% remaining at 30 min) Human [1]: 56% | Metabolic stability (% remaining at each time) Rat (min) 30 [2]: 79.6% | Metabolic stability (% remaining at each time) Rat (min) 45 [2]: 76.6% | Metabolic stability (% remaining at each time) Rat (min) 60 [2]: 83.1% | Organ distribution (ratio per plasma) Brain (Organ distribution; 0.5 h): 0.02 | Organ distribution (ratio per plasma) Brain (Organ distribution; 6.0 h): 0.01 | Organ distribution (ratio per plasma) Heart (Organ distribution; 0.5 h): 0.06 | Organ distribution (ratio per plasma) Heart (Organ distribution; 6.0 h): 0.03 | Organ distribution (ratio per plasma) Kidney (Organ distribution; 0.5 h): 0.01 / 0.01 | Organ distribution (ratio per plasma) Kidney (Organ distribution; 6.0 h): 0.01 / 0.01 | Organ distribution (ratio per plasma) Liver (Organ distribution; 0.5 h): 19.1 / 19.1 | Organ distribution (ratio per plasma) Liver (Organ distribution; 6.0 h): 19.1 / 19.1 | Organ distribution (ratio per plasma) Lung (Organ distribution; 0.5 h): 0.08 | Organ distribution (ratio per plasma) Lung (Organ distribution; 6.0 h): 0.06 | Organ distribution Plasma (ng/ml) (Organ distribution; 0.5 h): 3,145 ng/ml | Organ distribution Plasma (ng/ml) (Organ distribution; 6.0 h): 1,769 ng/ml | Cmax ([3]; 10 mg/kg, po, 10 mpk): 2020 ng/mL | Tmax ([3]; 10 mg/kg, po, 10 mpk): 0.5 h | half-life ([3]; 10 mg/kg, po, 10 mpk): 1.83 h | Cmax ([3]; 30 mg/kg, po, 30 mpk): 4720 ng/mL | Tmax ([3]; 30 mg/kg, po, 30 mpk): 2 h | half-life ([3]; 30 mg/kg, po, 30 mpk): 2.67 h | AUC ([3]; iv, 2 mg/kg, 2 mpk): 3440 ng·h/mL | AUC ([3]; po, 10 mg/kg, 10 mpk): > 5000 ng·h/mL | AUC [3, 8]: 5830 ng·h/mL | AUC ([3]; po, 30 mg/kg, 30 mpk): 25600 ng·h/mL | AUC [3, 9]: 25600 ng·h/mL | BA (%) ([3]; po, 10 mpk against iv 2 mpk): 33.9% | BA (%) ([3]; po, 30 mpk against iv 2 mpk): 49.6% | pEC50 (Raw 264.7 cells): 5.10 | Metabolic stability (% remaining at each time) Dog (min) 30 [4]: 80.7% | Metabolic stability (% remaining at each time) Dog (min) 45 [4]: 85.6% | Metabolic stability (% remaining at each time) Dog (min) 60 [4]: 75.9% | Metabolic stability (% remaining at 30 min) Rat [5]: 50% | Metabolic stability (% remaining at each time) Human (min) 30 [6]: 59.1% | Metabolic stability (% remaining at each time) Human (min) 45 [6]: 50.2% | Metabolic stability (% remaining at each time) Human (min) 60 [6]: 46.2% | pEC50 (Raw264.7 cells): 6.12 | Metabolic stability (% remaining at each time) Mouse (min) 30 [7]: 67.1% | Metabolic stability (% remaining at each time) Mouse (min) 45 [7]: 62.3% | Metabolic stability (% remaining at each time) Mouse (min) 60 [7]: 49.6% | inhibition at 10 µM (KARS1 and 37LR): 64.5%
Structure (SMILES): COc1ccc(CCN(Cc2ccc(C#CC(=O)O)cc2)c2nc3cccc(F)c3s2)cc1 [Compound C0001, reference compound]
inhibition at 3 µM (Raw 264.7 cells): 41.9% | inhibition at 1 µM (Raw264.7 cells): 68.7%

— patent EP4656630A1, “NOVEL COMPOUND AS LYSYL-TRNA SYNTHETASE 1 INHIBITOR, AND USE THEREOF” (Zymedi Co., Ltd., priority 2023, dated 2024)
